For assay [1], the target named is T1, α-amylase (Sus scrofa, UniProt P00690).
T1 construct: α-amylase (EC 232-565-6, powder, ≥5 units/mg solid) isolated from porcine pancreas; purchased Sigma-Aldrich Co; host or cells: porcine pancreas
T1 sequence (P00690 16-511): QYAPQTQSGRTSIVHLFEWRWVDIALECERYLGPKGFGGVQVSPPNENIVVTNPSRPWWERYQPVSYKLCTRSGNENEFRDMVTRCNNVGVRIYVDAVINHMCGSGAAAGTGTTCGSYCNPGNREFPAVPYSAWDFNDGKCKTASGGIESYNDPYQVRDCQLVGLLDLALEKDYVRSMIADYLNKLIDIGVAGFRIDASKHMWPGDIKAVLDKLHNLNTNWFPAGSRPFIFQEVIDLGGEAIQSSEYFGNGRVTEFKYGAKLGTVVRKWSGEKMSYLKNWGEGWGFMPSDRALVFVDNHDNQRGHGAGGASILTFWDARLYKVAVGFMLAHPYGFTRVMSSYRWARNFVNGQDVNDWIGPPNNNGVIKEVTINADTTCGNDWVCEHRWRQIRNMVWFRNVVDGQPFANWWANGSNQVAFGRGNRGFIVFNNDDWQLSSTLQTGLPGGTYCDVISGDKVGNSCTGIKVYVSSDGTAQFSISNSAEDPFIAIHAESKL
Put plainly: In vitro α-amylase activity assay (G3-CNP, absorbance 405 nm). It counts as biochemical, porcine. The following applies: for inhibition at 500 µM: read-out: α-Amylase inhibition. As to the method: (§1) The other reagents used in this experiment are analytically pure reagents purchased from Sigma-Aldrich Co. (St. Louis, MI, USA) unless specified otherwise.
The in vitro […] activity assay was determined using spectrophotometry, as previously reported, with only minor modifications. A total of 5 U/mL of α-amylase and the appropriate quantity of 2-chloro-4-nitrophenyl α-D-maltotrioside (G3-CNP) were produced. […] Gradient dilution with a phosphate-buffered solution was used to create sample solutions of various concentrations. First, different concentrations of compound (10 μL), an enzyme solution (40 μL), and potassium phosphate buffer (100 μL) were pre-incubated in 96-well plates at 37 °C for 10 min.
(§2) The enzymatic inhibitory activity of the tested compounds was calculated using the following formula: Inhibition %=[(Abs control−Abs sample)/Abs control]×100
(§3) The IC50 values of the tested compounds were calculated using nonlinear fitting (logit method).

Assay [2] deals with T2, α-glucosidase (Saccharomyces cerevisiae, UniProt P53341).
T2 construct: purchased Sigma-Aldrich Co
T2 sequence (P53341 whole entry): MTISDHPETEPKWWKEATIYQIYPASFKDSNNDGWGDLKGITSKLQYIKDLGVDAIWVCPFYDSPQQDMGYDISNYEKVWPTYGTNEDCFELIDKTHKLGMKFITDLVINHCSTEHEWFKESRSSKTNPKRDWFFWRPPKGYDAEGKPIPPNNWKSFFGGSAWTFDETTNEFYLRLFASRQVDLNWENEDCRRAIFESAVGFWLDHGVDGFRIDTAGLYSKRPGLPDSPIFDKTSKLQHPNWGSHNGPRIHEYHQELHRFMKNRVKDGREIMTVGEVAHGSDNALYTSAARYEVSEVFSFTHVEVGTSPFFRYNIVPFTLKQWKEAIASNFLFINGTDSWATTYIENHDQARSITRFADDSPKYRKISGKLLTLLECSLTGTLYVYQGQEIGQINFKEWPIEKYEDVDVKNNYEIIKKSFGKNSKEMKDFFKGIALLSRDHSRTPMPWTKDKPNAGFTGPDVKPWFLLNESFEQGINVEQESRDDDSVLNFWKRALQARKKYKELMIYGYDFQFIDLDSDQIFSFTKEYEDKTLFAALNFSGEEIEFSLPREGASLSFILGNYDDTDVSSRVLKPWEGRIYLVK
Put plainly: biochemical. To be noted: for inhibition at 500 µM: read-out: α-Glucosidase inhibition. As to the method:
as §1
The in vitro α-glucosidase activity assay was determined using spectrophotometry, as previously reported, with only minor modifications. In phosphate buffer with a pH of 6.8, 0.5 U/mL of α-glucosidase and the appropriate quantity of p-nitrophenyl-D-glucopyranoside (pNGP) were produced. […] Gradient dilution with a phosphate-buffered solution was used to create sample solutions of various concentrations. First, different concentrations of compound (10 μL), an enzyme solution (40 μL), and potassium phosphate buffer (100 μL) were pre-incubated in 96-well plates at 37 °C for 10 min.
as §2, §3

In assay [3] the test system is db/db mice. Description: Postprandial blood glucose level measurement after oral starch load. The format is in vivo. To be noted: 100 mg/kg, oral starch 2 g/kg. The method, then: db/db mice and C57BL/6J mice were purchased f0rom Beijing Zhishan Health Medical Research Institute. The animal testing procedure was approved by Beijing Huayuan Times Technology Co., Ltd Ethics Committee on the Management and Welfare of Laboratory Animals. (Ethics review batch number: HYSD2023-04) and strictly follows the local and national codes of ethics. All mice were placed in a control chamber at 25 °C and 60% relative humidity with a light/dark period of 12/12 h. During this period, all mice had free access to normal feed and water. […] All mice were given starch (2 g/kg) orally 60 min after treatment. Blood samples were taken from the caudal vein and blood glucose was measured after 0, 30, 60, and 120 min. The area under the curve (AUC) was calculated using the trapezoidal rule.

Where [4] appears, read: read-out: α-amylase inhibition IC50±SEM.
Where [5] appears, read: read-out: α-glucosidase inhibition IC50±SEM.

Read-outs that look alike come from different tables or passages of the source.

The source of these data is paper PMC10528180 (Foods, 2023).

What is called inhibition is how much of the control response was suppressed. Usually IC50 stands for the concentration needed to halve the response being measured.

With `C[C@@H]1O[C@@H](Oc2c(-c3ccc(O)c(O)c3)oc3cc(O)cc(O)c3c2=O)[C@H](O)[C@H](O)[C@H]1O` [Quercitrin], the figures for the inhibition at 500 µM in assay [1] (at 500 µM) and in assay [2] were 22% and 38%, respectively. The IC50 in assay [1] (setting [4]) and in assay [2] was above 500 µM in each case.
As for `O=c1cc(-c2ccc(O)cc2)oc2cc(O)c([C@@H]3O[C@H](CO)[C@@H](O)[C@H](O)[C@H]3O)c(O)c12` [Isovitexin], the IC50 in assay [1] was above 500 µM. In addition, in assay [1] (at 500 µM), the inhibition at 500 µM came out at 43%.
As to `O=c1c(O)c(-c2ccc(O)c(O)c2)oc2cc(O[C@@H]3O[C@H](CO)[C@@H](O)[C@H](O)[C@H]3O)c(O)c(O)c12` [Quercetagitrin], the figures for the inhibition at 500 µM in assay [1] (at 500 µM) and in assay [2] were 71% and 56%, respectively. The half-maximal inhibitory concentration (IC50) in assay [1] (setting [4]) was above 125 µM; in assay [2] (setting [5]) it was above 250 µM.
For the compound `O=c1cc(-c2ccccc2)oc2cc(O[C@@H]3O[C@H](CO)[C@@H](O)[C@H](O)[C@H]3O)c(O)c(O)c12` [Oroxin A], the inhibition at 500 µM in assay [1] (at 500 µM) stood at 60%; in assay [2] it was 10%. Further, the IC50 in assay [1] (setting [4]) was above 250 µM; in assay [2] (setting [5]), above 500 µM.
Regarding `O=c1c(O[C@@H]2O[C@H](CO)[C@H](O)[C@H](O)[C@H]2O)c(-c2ccc(O)c(O)c2)oc2cc(O)cc(O)c12` [Hyperoside], the inhibition at 500 µM in assay [1] (at 500 µM) was 28%; in assay [2], 48%. The IC50 in assay [1] (setting [4]) and in assay [2] was above 500 µM throughout.
In the case of `C[C@H]1O[C@H](O[C@H]2[C@H](O)[C@@H](O)[C@@H](O[C@H]3[C@H](O)[C@@H](O)C(O)O[C@@H]3CO)O[C@@H]2CO)[C@H](O)[C@@H](O)[C@@H]1N[C@H]1C=C(CO)[C@@H](O)[C@H](O)[C@H]1O` (stereo partly drawn) [Acarbose, reference compound], the “glucose AUC” value in assay [3] amounted to 43.0 mmol·h/L. Also, the “reduction of glucose AUC of diabetic mice” value in assay [3] (vs model) turned out to be 20.31%. For the same compound, the figures for the inhibition at 500 µM in assay [1] and in assay [2] were 99% and 49%, respectively.
Take `O=c1c(O[C@@H]2O[C@@H](CO)[C@H](O)[C@H]2O)c(-c2ccc(O)c(O)c2)oc2cc(O)cc(O)c12` [Avicularin]: the 50% inhibitory concentration (IC50) in assay [1] and in assay [2] was above 500 µM in each case. For the same compound, the inhibition at 500 µM in assay [1] (at 500 µM) was determined as 19%; in assay [2], 33%.
With `O=C(O)C1OC(Oc2c(-c3ccc(O)c(O)c3)oc3cc(O)cc(O)c3c2=O)C(O)C(O)C1O` (stereo not drawn) [Quercituron], the results for the inhibition at 500 µM in assay [1] (at 500 µM) and in assay [2] were 42% and 17%, respectively. The concentration for half-maximal inhibition (IC50) in assay [1] (setting [4]) and in assay [2] (setting [5]) was above 500 µM throughout.
For the compound `O=c1c(O[C@@H]2O[C@H](CO)[C@H](O)[C@H](O)[C@H]2O)c(-c2ccc(O)cc2)oc2cc(O)cc(O)c12` [Trifolin], the inhibition at 500 µM in assay [1] (at 500 µM) amounted to 19%. Besides, in assay [1] (setting [4]), the IC50 was above 500 µM.
As to Catechin gallate, the α-Amylase inhibition in assay [1] (at 500 µM) is recorded as 82%. Also, in assay [2] (at 500 µM), the α-Glucosidase inhibition turned out to be 94%.
On to `O=c1cc(-c2ccc(O)cc2)oc2cc(O[C@@H]3O[C@H](CO)[C@@H](O)[C@H](O)[C@H]3O)cc(O)c12` [Apigetrin], for which the results for the inhibition at 500 µM in assay [1] (at 500 µM) and in assay [2] were 12% and 74%, respectively. Also, the midpoint of inhibition in assay [2], the IC50, lay at 187 ± 6.93 µM. For the same compound, the “selectivity for glucosidase over α-amylase among the 12 compounds” value in assay [2] (inhibition at 500 µM of both enzymes compared) is “selective inhibition of glucosidase”.
Take `O=C(O[C@@H]1Cc2c(O)cc(O)cc2O[C@@H]1c1ccc(O)c(O)c1)c1cc(O)c(O)c(O)c1` [Epicatechin gallate]: the inhibition at 500 µM in assay [1] (at 500 µM) amounted to 62%; in assay [2], 61%. The IC50 in assay [1] (setting [4]) and in assay [2] was above 250 µM throughout.
